According to patent US10233201B2, “Class of HDAC inhibitors expands the renal progenitor cells population and improves the rate of recovery from acute kidney injury” (University of Pittsburgh—Of the Commonwealth System of …, priority 2012, dated 2019):

Assays:
[1] = test system: pronephros; assay: Pronephric markers at 48 hpf (cdh17, NaK-ATPase, wt1a, slc4a4, slc12a1); assay type: in vivo, zebrafish; conditions: 3 μM
Description: (§1) PTBA was synthesized as described below. Hydroxyurea and aphidicolin were obtained from Sigma-Aldrich.
In situ hybridization and immunocytochemistry: In situ hybridization was performed as previously described with some modifications. 142 Hybridization temperature was 65° C. Embryos were blocked in 2% blocking reagent (Roche) with 5% sheep serum in MAB (100 mM maleic acid and 150 mM NaCl [pH 7.5]). Whole-mount immunocytochemistry with 1:25 mouse anti-α6F antibody (Developmental Studies Hybridoma Bank) and 1:100 Cy3 secondary antibody (Jackson ImmunoResearch) was performed as described previously. 108 Embryos were embedded in JB-4 for sectioning per the manufacturer's instructions (Polysciences), sectioned at 5 μm, and mounted with Cytoseal 60 (Richard-Allan Scientific).

[2] = test system: zebrafish larvae; assay: Phenotypic scoring of edema and survival in zebrafish larvae at 72 hpf; assay type: in vivo
Description: as §1
Wild type: no visible edema or developmental delay.

[3] = test system: Acetylated Histone H3 K9 (Ac-H3 K9); assay: Renal histone H3 K9 acetylation after single injection in CD1 mice; assay type: in vivo, mouse
Description: PTBA analogues are soluble in 1% DMSO/water, are administered subcutaneously as a single injection in adult CD1 mice, and kidneys harvested at 12, 24 and 48 hours to evaluate histone acetylation (which should increase with HDACi). PTBA analogs are used at a dose range determined from comparative dose efficacy with m4PTB in the secondary zebrafish screen. Acetylated Histone H3 K9 (Ac-H3 K9) is evaluated, as this is most easily detected by Western blot in nuclear extracts from mouse renal tissues. Preliminary studies compared the effect of Trichostatin A (an established, but toxic HDACi) at an effective dose in the zebrafish screen ([…]) with an equivalent dose of m4PTB (0.8 mM), and then X2 and X4 dose increments (molar concentration in vivo based on estimate uniform distribution relative to body mass of water). 3.4 mg/kg (4×) m4PTB induced maximal expression of Ac-H3 K9 after 24 hours (FIG. 36). This effect was increased compared with TSA or lower doses of m4PTB, so we elected to use this dose of m4PTB (3.4 mg/kg) for AKI studies in mice. […]
We evaluated efficacy and effective dosage of a second-generation PTBA analogue, m4PTB, by determining the kinetics of renal Histone H3 K9 acetylation (H3K9Ac) following a single SC injection. […]

| Structure (SMILES) | embryos with expansion of cdh17 [1] [%] | expansion of slc4a4 [1] [%] | expansion of slc12a1 [1] [%] | expansion of wt1a [1] [%] | death by 72 hpf ([2]; 3 μM) | edema in 72 hpf larvae ([2]; 3 μM, treatment initiated at 15 somites or later) | phenotype in initial chemical screen ([2]; 10 μM, larvae at 72 hpf) | death by 72 hpf ([2]; 10 μM, n=90) | larvae with edemic phenotype / pericardial edema at 72 hpf ([2]; treated from 2 hpf, 3 μM PTBA, 25 μM PBA, 200 nM TSA) [%] | persistence of H3K9Ac induction ([3]; 3.4 mg/kg single SC injection) [h] | dose inducing maximal Ac-H3 K9 expression in kidney ([3]; single SC injection, after 24 hours) [mg/kg] |
| --- | --- | --- | --- | --- | --- | --- | --- | --- | --- | --- | --- |
| O=C(O)CCCSc1ccccc1 [PTBA, 4-(phenylthio)butanoic acid] | 89 | 92 | 64 | 74 | without causing significant death | lack of edema | generated pericardial edema | died before 72 hpf | 92 | – | – |
| COC(=O)CCCSc1ccccc1 [UPHD-00025, methyl 4-(phenylsulfanyl) butanoate] | – | – | – | – | – | – | – | – | – | 24 | 3.4 |
